Results as given in patent US5935945A, “Methods of treating or preventing cardiac arrhythmia” (Merck & Co., Inc., priority 1997, dated 1999).

Molecular target: T1, IKr (rapidly activating delayed rectifier K^+ current) (Cavia porcellus, UniProt O08703)
T1 construct: Guinea pig ventricular myocytes were isolated; from tissue; host or cells: isolated guinea pig ventricular myocytes
T1 sequence (O08703 1-1294): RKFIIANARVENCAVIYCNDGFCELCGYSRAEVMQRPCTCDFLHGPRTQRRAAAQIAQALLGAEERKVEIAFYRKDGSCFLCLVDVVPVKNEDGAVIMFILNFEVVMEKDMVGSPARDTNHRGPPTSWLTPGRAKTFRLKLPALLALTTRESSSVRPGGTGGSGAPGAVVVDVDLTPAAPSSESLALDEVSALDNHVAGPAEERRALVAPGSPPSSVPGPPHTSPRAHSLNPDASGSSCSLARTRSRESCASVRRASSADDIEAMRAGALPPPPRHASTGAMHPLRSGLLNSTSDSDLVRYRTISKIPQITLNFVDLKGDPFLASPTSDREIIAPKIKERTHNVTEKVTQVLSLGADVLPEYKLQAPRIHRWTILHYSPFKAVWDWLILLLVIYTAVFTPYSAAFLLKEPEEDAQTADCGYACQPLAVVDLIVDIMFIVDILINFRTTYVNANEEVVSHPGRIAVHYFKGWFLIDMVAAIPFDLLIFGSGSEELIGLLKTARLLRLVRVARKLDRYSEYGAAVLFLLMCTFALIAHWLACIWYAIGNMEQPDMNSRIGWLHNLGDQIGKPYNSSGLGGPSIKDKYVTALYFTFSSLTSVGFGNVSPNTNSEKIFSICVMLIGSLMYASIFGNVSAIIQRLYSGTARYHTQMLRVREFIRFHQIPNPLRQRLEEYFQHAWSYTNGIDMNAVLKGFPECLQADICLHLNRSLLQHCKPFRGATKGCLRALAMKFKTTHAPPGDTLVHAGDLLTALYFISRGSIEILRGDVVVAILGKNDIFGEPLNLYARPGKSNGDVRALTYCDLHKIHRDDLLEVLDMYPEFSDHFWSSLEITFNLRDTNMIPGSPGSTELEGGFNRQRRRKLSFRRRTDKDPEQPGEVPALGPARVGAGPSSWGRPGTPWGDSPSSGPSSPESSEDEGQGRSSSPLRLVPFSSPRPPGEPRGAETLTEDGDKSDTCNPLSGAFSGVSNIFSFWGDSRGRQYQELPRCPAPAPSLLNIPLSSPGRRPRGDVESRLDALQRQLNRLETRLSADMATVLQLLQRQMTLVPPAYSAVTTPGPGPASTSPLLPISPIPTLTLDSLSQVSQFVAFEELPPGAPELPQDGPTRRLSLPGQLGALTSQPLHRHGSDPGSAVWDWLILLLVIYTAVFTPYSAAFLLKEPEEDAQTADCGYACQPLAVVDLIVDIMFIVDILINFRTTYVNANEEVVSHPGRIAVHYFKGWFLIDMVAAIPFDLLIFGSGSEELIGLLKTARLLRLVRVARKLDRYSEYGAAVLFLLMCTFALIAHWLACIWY
Experiment: Voltage-clamp measurement of IKr in guinea pig ventricular myocytes
Type: cell-based
Details: read-out: % Block (Guinea Pig Ventricle) IKr
Procedure: Guinea pig ventricular myocytes were isolated using a modification of the procedure described by Mitra et al., Am. J. Physiol. 249:H1056-60 (1985). Excised hearts were perfused through the aorta (retrograde fashion) at a rate of 10 ml/min with oxygenated, warmed (37° C.) solutions described below. The heart was initially perfused for 7 minutes with a Tyrode's solution containing, (in mM): 132 NaCl, 4 KCl, 1.2 MgCl2, 10 HEPES, 5 glucose, pH=7.2. The heart was then perfused with the same nominally Ca^2+ -free solution containing 150 units/ml Type II collagenase (Worthington) and 0.5 units/ml Type XIV protease (Sigma) for 8 minutes. This perfusate was followed by a Tyrode's solution containing 0.2 mM CaCl2 (without enzymes) for 5 minutes. The digested ventricles were cut into small pieces and gently shaken until cells were visibly dispersed. The cells were stored at room temperature until use, within 8 hours after isolation.
The suction microelectrode technique described by Giles, W. R. and Shibata, E. F., "Voltage clamp of bull-frog cardiac pacemaker cells: a quantitative analysis of potassium currents", J. Physiol. 368:265-292 (1985) was used to voltage clamp the cells. Microelectrodes were made by using a two stage puller from square bore (1.0 mm o.d.) borosilicate capillary tubing. Pipettes were filled with 0.5 M K gluconate, 25 mM KCl and 5 mM K2 ATP. The electrodes had resistances of 3 to 7 M.OMEGA. when filled with this solution. After establishing whole-cell recording mode, negative pressure was maintained on the pipette using a 1 ml gas-tight syringe attached via air tight tubing to the suction port of the microelectrode holder. This minimized dialysis of the cell with the pipette solution.
To record K^+ currents, the cells were bathed in a Ca^2+ -free Tyrode's solution containing […]. […] To record Ca^2+ currents, the cells were bathed in Tyrode's solution containing 1.8 mM Ca^2+ without nisoldipine. The cell chamber was superfused with solutions at a rate of 1-2 ml/minute, while maintaining the temperature at 35±1° C. A List EPC-7 clamp amplifier was used to voltage clamp the isolated cells. […] (Sanguinetti M. C. and Jurkiewicz, N. K., "Two components of cardiac delayed rectifier K^+ current: Differential sensitivity to block by Class III antiarrhythmic agents", J. Gen Physiol 1990; 96:194-214.) Data was analyzed as % block from control membrane currents.
Nisoldipine was prepared as a 4 mM stock solution in polyethylene glycol 200. […] At the final concentrations used neither polyethylene glycol 200 nor dimethyl sulfoxide had any effect on any of the measured membrane currents.
Selectivity for block of cardiac K^+ channels, IK1, IKr, and IKs was determined as previously described in guinea pig ventricular myocytes (U.S. Pat. No. 5,428,031).

Row | Compound | inhibition at 3 µM | inhibition at 10 µM (@ 10 μM)
1 | COc1ccc(-n2nc(Sc3ccc(C)cc3)c(C)c(C#N)c2=O)cc1 [Compound B] | 4.2% | 
2 | COc1ccc(-n2nc(Sc3ccc(Cl)cc3)c(C)c(C#N)c2=O)cc1 [Compound A, 6-(4-Chlorophenylthio)-2-(4-methoxyphenyl)-5-methyl-3-oxo-2,3-dihydropyridazine-4-carbonitrile] |  | 29%
3 | Cc1cc(C)c(CP(=O)(c2ccccc2)c2ccccc2)c(-c2ccc(F)c(C)c2)c1 [Compound C, 2-(Diphenylphosphinylmethyl)-4'-fluoro-3,5,3'-trimethyl-biphenyl] | 11.1% | 
